Assay results from patent publication US20060084615A1, “Puerarin derivatives and their medical uses” (priority 2004, published 2006).

What was measured:
in vivo = assay: in vivo
Procedure: Agilent 1100 HPLC, DAD diode, HP1100 chromatography workstation and Agilent XDB-C18 column (250 mm×4.6 mm D, 5 μm) were used. The pre-column is Agilent XDB-C18 column (12.5 mm×4.6 mm D, 5 μm). Gradient elution was carried according to Table 1 below: […]
Sprague-Dawley (SD) rats weighing 180±20 g, both male and female were provided by the Laboratory Animal Centre of the Guangzhou Traditional Chinese Medicine (TCM) University.
Two hundred and sixty SD rats were randomly divided into 20 groups with 13 rats in each group. The rats were fasted for one day before the test.
Puerarin, 4ac, 5ac and 6ac was dissolved in sterilized water to produce suspension of final dosage of 400 mg/kg, 560 mg/kg, 600 mg/kg and 640 mg/kg, 10 ml/kg and administered orally to the rats.
At t=10, 20, 30, 45, 60, 90, 120 min, 2 h, 4 h, 6 h, 7 h, 8 h and 12 h after administration, 3 ml of blood was collected from the femoral vein of each animal and kept in a centrifuge tube at room temperature for 0.5 h. The blood was centrifuged at 3000 r/min for 15 min and the serum was taken for analysis.
Serum (0.5 ml) was added with 0.2 ml methanol and mixed with a vortex mixer for 1 min. The mixture was then centrifuged at 3000 r/min for 15 min. The supernatant was dried by nitrogen gas flow and the residue was dissolved in 0.2 ml methanol. The mixture was again centrifuged at 10000 r/min for 10 min and the supernatant subjected to HPLC analysis.
The samples were treated, applied and as stated in section 2.2, and the serum concentration of each compound was calculated by the one-point external standard method. The calculated data were processed using the 3P97 pharmacokinetics statistics software supplied by the Mathematics Committee of the China Pharmacology Association.

[1] = test system: myocardial ischemic rats induced by posterior pituitary injection; assay: Acute myocardial ischemia induced by posterior pituitary extract injection, ECG T wave variation; format: in vivo, SD rats; conditions: for Amplitude of T wave: i.g. 5 days plus day 6, X ± SD, n = 10; for Effect against myocardial ischemia in rats induced by posterior pituitary injection: doses 0.8 g/kg puerarin, 1.12 g/kg 4ac, 1.20 g/kg 5ac, 1.28 g/kg 6ac (equivalent to 0.8 g/kg puerarin)
Procedure: Puerarin was purchased from Beijing Union Pharmaceutical Factory (PRC). Puerarin derivatives 4ac, 5ac and 6ac were supplied by The Hong Kong Polytechnic University. The puerarin was dissolved in 1:1 of PEG400 and sterilized distilled water to make 0.8 g/kg body weight, 10 ml/kg body weight solutions for i.g. feeding.
Puerarin derivative 4ac was dissolved in 1:1 of PEG400 and sterilized distilled water to make 1.12 g/kg, 10 ml/kg solution for intra-gastro (i.g.) feeding. Puerarin derivative 5ac was dissolved in 1:1 of PEG400 and sterilized distilled water to make 1.20 g/kg, 10 ml/kg solution for i.g. feeding. Puerarin derivative 6ac was dissolved in 1:1 of PEG400 and sterilized distilled water to make 1.28 g/kg, 10 ml/kg solution for ig feeding. The concentrations of each solution were selected such that 0.8 g/kg of equivalent puerarin will be administered to each animal.
Propranolol hydrochloride at 10 mg/tablet, was from the Shantou Jinshi Pharmaceuticals (PRC, batch no: 020802). Propranolol hydrochloride is a drug prescribed for myocardial ischemia. It is expected to decrease the T wave elevation in ECG during myocardial ischemia. The drug was dissolved in sterilized distilled water to make a 0.2 mg/ml, 10 ml/kg solution for i.g. feeding.
Sixty SPF grade SD rats weighing 200±20 g of both sexes were grouped evenly into six groups according to their weight and sex, and fed i.g. according to the following protocol: • a) Normal: distilled water 10 ml/kg; • b) Positive control: propranolol hydrochloride […], 10 ml/kg; • c) Puerarin solution: puerarin 0.8 g/kg, 10 ml/kg; • d) Puerarin derivative 4ac solution: 4ac 1.12 g/kg, 10 ml/kg; • e) Puerarin derivative 5ac solution: 5ac 1.20 g/kg, 10 ml/kg; • f) Puerarin derivative 6ac solution: 6ac 1.28 g/kg, 10 ml/kg.
The rats were administered the respective treatments for five consecutive days. On the sixth day, one hour after the administration of the treatment, the rats were anesthetized with 3% pentobarbital sodium at a dose of 40 mg/kg i.p. Two terminal leads were connected to the rats to record the normal electrocardiograph (ECG).
When the ECG reading became steady, 1 u/kg of posterior pituitary extract injection (obtained from the Nanjing Xintian Biochemical Pharmaceuticals Company Ltd; batch no 020601) was given intraveneously at the tail vein. Posterior pituitary extract induces acute myocardial ischemia. On ECG, the extract causes the T wave to elevate, flatten and sometimes invert. It also elevates the ST segment and lengthens the PR and QT intervals.
The ECG was recorded immediately for 30 minutes. The variations in T wave were calculated and analyzed statistically.

[2] = 5 s after posterior pituitary injection
[3] = 15 s after posterior pituitary injection
[4] = 30 s after posterior pituitary injection
[5] = 2 min after posterior pituitary injection
[6] = 5 min after posterior pituitary injection
[7] = 10 min after posterior pituitary injection
[8] = oral suspension, SD rats, serum puerarin by HPLC, puerarin 400, 4ac 560, 5ac 600, 6ac 640 mg/kg

Pharmacokinetic compartment model fitted (3P97 software) (in vivo; rat, in vivo, po) | AUC(0-∞) = area under concentration-time curve (in vivo; rat, in vivo, po, 640 mg/kg) | CL = total body clearance (in vivo; rat, in vivo, po, 640 mg/kg) [mg/kg/min/µg/mL] | SMILES | Amplitude of T wave [1, 2] [μV] | Amplitude of T wave [1, 3] [μV] | Amplitude of T wave [1, 4] [μV] | Amplitude of T wave [1, 5] [μV] | Amplitude of T wave [1, 6] [μV] | Amplitude of T wave [1, 7] [μV] | Effect against myocardial ischemia in rats induced by posterior pituitary injection [1] | Pharmacokinetic compartment model fitted (3P97 software) (in vivo; oral, SD rats) | also measured
one-compartment open model | 6104.81 ± 275.29 (μg/ml)min | 0.1030 ± 0.0163 | CC(=O)OCC1OC(c2c(O)ccc3c(=O)c(-c4ccc(O)cc4)coc23)C(OC(C)=O)C(OC(C)=O)C1OC(C)=O (stereo not shown) [Compound 4ac, 2″,3″,4″,6″-0-tetraacetylpuerarin] | 15.09 ± 7.62 | 23.23 ± 10.69 | 35.40 ± 10.93 | 36.51 ± 16.02 | 25.60 ± 14.23 | 25.41 ± 10.21 | effective | – | C(max) relative to that of puerarin (in vivo; both, Sprague-Dawley, rat, in vivo, po): 1.90 folds; AUC compared with puerarin (t test) (in vivo; rat, in vivo, po): significantly greater; AUC relative to that of puerarin (in vivo; rat, in vivo, po): 2.24 folds; Bioavailability compared with puerarin (in vivo; rat, in vivo, po): higher than puerarin and other derivatives
two-compartment open model | 4566.95 ± 762.64 (μg/ml)min | 0.1011 ± 0.0425 | CC(=O)OCC1OC(c2c(OC(C)=O)ccc3c(=O)c(-c4ccc(O)cc4)coc23)C(OC(C)=O)C(OC(C)=O)C1OC(C)=O (stereo not shown) [Compound 5ac, 7,2″,3″,4″,6″-0-pentaacetylpuerarin] | 19.09 ± 6.20 | 29.42 ± 9.39 | 37.61 ± 13.43 | 40.11 ± 16.04 | 24.50 ± 13.63 | 24.39 ± 14.28 | effective | – | t1/2(a) = half-life of absorption (in vivo; rat, in vivo, po, 640 mg/kg): 22.1168 ± 18.7136 min; t1/2(β) = half-life of clearance (in vivo; rat, in vivo, po, 640 mg/kg): 425.03 ± 253.68 min
– | – | – | CC(C)NCC(O)COc1cccc2ccccc12.Cl (stereo not shown) [+ve control, Propranolol hydrochloride, reference compound] | 16.11 ± 5.30 | 18.51 ± 9.26 | 22.10 ± 11.23 | 30.41 ± 11.58 | 26.62 ± 10.99 | 22.09 ± 11.31 | – | – | –
– | – | – | CC(=O)OC[C@H]1O[C@@H](c2c(OC(C)=O)ccc3c(=O)c(-c4ccc(OC(C)=O)cc4)coc23)[C@H](OC(C)=O)[C@@H](OC(C)=O)[C@@H]1OC(C)=O [Compound 6ac, Hexa-0-acetyl puerarin] | 16.33 ± 9.18 | 29.09 ± 16.50 | 39.12 ± 15.21 | 41.05 ± 15.60 | 29.14 ± 10.60 | 22.11 ± 9.81 | effective | two-compartment open model | AUC(0-∞) = area under concentration-time curve (in vivo; [8]): 3149.69 ± 467.26 (μg/ml)min; C (max) = maximum concentration reached by the compound (in vivo; [8]): 4.9324 ± 0.0695 µg/mL; CL = total body clearance (in vivo; [8]): 0.1696 ± 0.1206 mg/kg/min/µg/mL; T(peak) = time the compound takes to reach the absorption peak (in vivo; [8]): 81.39 ± 10.02 min; t1/2(a) = half-life of absorption (in vivo; [8]): 111.9702 ± 108.66 min; t1/2(β) = half-life of clearance (in vivo; [8]): 2664.97 ± 379.94 min

SMILES | Pharmacokinetic compartment model fitted (3P97 software) (in vivo; rat, in vivo, po) | AUC(0-∞) = area under concentration-time curve (in vivo; rat, in vivo, po, 640 mg/kg) | CL = total body clearance (in vivo; rat, in vivo, po, 640 mg/kg) [mg/kg/min/µg/mL] | Amplitude of T wave [1, 2] [μV] | Amplitude of T wave [1, 3] [μV] | Amplitude of T wave [1, 4] [μV] | Amplitude of T wave [1, 5] [μV] | Amplitude of T wave [1, 6] [μV] | Amplitude of T wave [1, 7] [μV] | Effect against myocardial ischemia in rats induced by posterior pituitary injection [1] | Pharmacokinetic compartment model fitted (3P97 software) (in vivo; oral, SD rats) | also measured
O=c1c(-c2ccc(O)cc2)coc2c([C@@H]3O[C@H](CO)[C@@H](O)[C@H](O)[C@H]3O)c(O)ccc12 [Puerarin] | – | 2729.94 ± 491.99 (μg/ml)min | 0.2032 ± 0.0541 | 18.06 ± 10.09 | 25.69 ± 11.21 | 31.22 ± 14.59 | 39.20 ± 16.11 | 29.10 ± 16.23 | 25.01 ± 10.40 | effective | two-compartment open model | half-life (in vivo; both, Sprague-Dawley, rat, in vivo, po, 640 mg/kg, t1/2(a) = half-life of absorption): 53.4 ± 11.3 min; half-life (in vivo; both, Sprague-Dawley, rat, in vivo, po, 640 mg/kg, t1/2(β) = half-life of clearance): 60.92 ± 0.431 min
